The values below come from patent publication EP4291552B1, “MODULATORS OF COMPLEX I” (Boehringer Ingelheim International GmbH, priority 2021, dated 2022).

One may read the pIC50 as the negative decadic logarithm of the IC50, by convention in mol/L.

Molecules are shown by their SMILES. pIC50: −log10 of the molar value.

This assay has as its system mice neuroblastoma cells (HT-22). The assay can be described thus: Determination of Cellular Protection (HT22). Conditions: Mus musculus, HT-22, 16 h, read-out: HT22 IC50.
With `CCC(C)Nc1ccc2c(c1)/C(=C1\COCCN1)C(=O)N2C1CCOCC1` (stereo not drawn) [Compound 59], the pIC50 was 7.66.

As to `CC(C)N1C(=O)/C(=C2/COCCN2)c2cc(NCC3CCOC3)ccc21` (stereo not drawn) [Compound 39], the pIC50 was 6.99.

For the molecule `CC(C)Nc1ccc2c(c1)/C(=C1\CC3(CN1)COC3)C(=O)N2C1CCOCC1` [Compound 165], the pIC50 is 6.60.

In the case of `CC(Nc1ccc2c(c1)/C(=C1\COCCN1)C(=O)N2C1CCOCC1)C1CCC1` (stereo not drawn) [Compound 148], the pIC50 was 7.80.

Take `CC(C)N1CCN/C(=C2\C(=O)N(C)c3ccc(N4CCCC4)cc32)C1` [Compound 23]: the pIC50 is 6.76.

In the case of `CC(=O)N1CCN/C(=C2\C(=O)N(C3CCOCC3)c3ccc(N4CCCC4)cc32)CC1` [Compound 12], the pIC50 was 6.72.

As to `CC(C)N1C(=O)C(=C2CCOCC2)c2cc(NC3CCOC3)ccc21` (stereo not drawn) [Compound 160], the pIC50 was 6.33.

With `CN1CCC(Nc2ccc3c(c2)/C(=C2\COCCN2)C(=O)N3C2CCOCC2)CC1` [Compound 150], the pIC50 was 6.54.

For `COCC(C)Nc1ccc2c(c1)/C(=C1\COCCN1)C(=O)N2C1CCOCC1` (stereo not drawn) [Compound 99], the pIC50 was 6.79.

Take `CC(C)N1C(=O)/C(=C2/COCCN2)c2cc(NC3CCN(C)CC3)ccc21` [Compound 38]: the pIC50 was 7.42.

On to `O=C1/C(=C2/CCOCCN2)c2cc(NC3CCC3)ccc2N1C1CCOCC1` [Compound 120], for which the pIC50 was 7.29.

`CCC(CC)Nc1ccc2c(c1)/C(=C1\COCCN1)C(=O)N2C1COC1` [Compound 136]: the pIC50 is 7.74.

With `CC1OCCC1Nc1ccc2c(c1)/C(=C1\COCCN1)C(=O)N2C(C)C` (stereo not drawn) [Compound 125], the pIC50 was 6.95.

Turning to `CC1CCCC1Nc1ccc2c(c1)/C(=C1\COCCN1)C(=O)N2C(C)C` (stereo not drawn) [Compound 124], the pIC50 was 7.82.

`O=C1/C(=C2/COCCN2)c2cc(NC3CCC3)ccc2N1C1CCOC1` (stereo not drawn) [Compound 14]: the pIC50 is 7.70.

As to `CC(C)N1C(=O)/C(=C2/COCCN2)c2cc(N3CCOCC3)ccc21` [Compound 166], the pIC50 is 6.19.

Consider `O=C1/C(=C2/COCCN2)c2cc(N3CCOCC3)ccc2N1C1CCOCC1` [Compound 4], for which the pIC50 was 5.50.

With `O=C1/C(=C2/CCOCCN2)c2cc(NC3CCOC3)ccc2N1C1CCOCC1` (stereo not drawn) [Compound 140], the pIC50 is 6.28.

Take `CN(C)c1ccc2c(c1)/C(=C1/NCCN1c1ccccc1)C(=O)N2C` [Compound 106]: the pIC50 was 6.85.

For `O=C1/C(=C2/COCCN2)c2cc(NCC3CCOC3)ccc2N1C1CCOCC1` (stereo not drawn) [Compound 151], the pIC50 is 6.74.

For `CC1CCC(C)N1c1ccc2c(c1)/C(=C1\COCCN1)C(=O)N2C` (stereo not drawn) [Compound 84], the pIC50 is 6.85.

With `O=C1/C(=C2/COCCN2)c2cc(N3CCCCC3)ccc2N1C1CCOCC1` [Compound 86], the pIC50 is 5.95.

Take `O=C1/C(=C2/COCCN2)c2cc(NC3CCC3)ccc2N1C1COC1` [Compound 51]: the pIC50 is 7.48.

Turning to `COCC(C)N1C(=O)/C(=C2/COCCN2)c2cc(N3CCC(O)C3)ccc21` (stereo not drawn) [Compound 119], the pIC50 is 6.36.

For `CC(C)N1CCC2(CC1)CN/C(=C1\C(=O)N(C(C)C)c3ccc(N4CCCC4)cc31)CO2` [Compound 91], the pIC50 was 8.05.

`Nc1ccc2c(c1)/C(=C1\CCCN1)C(=O)N2C1CCOCC1` [Compound 83]: the negative-log IC50 (pIC50) is 5.68.

Turning to `O=C1/C(=C2/COCCN2)c2cc(NC3CCC(F)(F)CC3)ccc2N1C1CCOCC1` [Compound 78], the pIC50 is 7.43.

As for `CC(C)Nc1ccc2c(c1)/C(=C1\COCC(C)N1)C(=O)N2C1CCOCC1` (stereo not drawn) [Compound 33], the pIC50 was 7.43.

Consider `CC(C)N1C(=O)/C(=C2/COCCN2)c2cc(NCC3(C)COC3)ccc21` [Compound 127], for which the pIC50 is 6.75.

Take `CC(C)Nc1ccc2c(c1)/C(=C1\COCCN1)C(=O)N2[C@H]1CCN(C2COC2)C1` [Compound 69]: the pIC50 was 6.85.

For `CC(C)N1C(=O)C(=C2CCOCC2)c2cc(N3CCCC3)ccc21` [Compound 7], the pIC50 was 6.59.

`CN1C(=O)/C(=C2/CCOCCN2)c2cc(N3CCCC3)ccc21` [Compound 107]: the pIC50 is 7.16.

On to `CC(C)N1C(=O)/C(=C2/CCOCCN2)c2cc(N3C(C)CCC3C)ccc21` (stereo not drawn) [Compound 128], for which the pIC50 is 7.33.

Take `O=C1/C(=C2/CCOCCN2)c2cc(NC3CCCC3)ccc2N1C1CCOCC1` [Compound 13]: the pIC50 was 7.85.

Regarding `CC(C)Nc1ccc2c(c1)/C(=C1\CN(C3CCOCC3)CCN1)C(=O)N2C(C)C` [Compound 134], the pIC50 was 7.36.

For `CC(C)N1C(=O)/C(=C2/COCCN2)c2cc(N3CCCC3)ccc21` [Compound 130], the pIC50 was 7.35.

On to `O=C1/C(=C2/COCCN2)c2cc(NC3CCCC3)ccc2N1C1COCCOC1` [Compound 50], for which the pIC50 is 7.89.

For `O=C1/C(=C2/COCCN2)c2cc(N3CCCC3)ccc2N1C1CCOCC1` [Compound 117], the pIC50 was 7.66.

As to `CC1CCC(C)N1c1ccc2c(c1)/C(=C1\CCOCCN1)C(=O)N2C1CCOCC1` (stereo not drawn) [Compound 29], the negative-log IC50 (pIC50) was 6.85.

`CC(Nc1ccc2c(c1)/C(=C1\COCCN1)C(=O)N2C(C)C)c1ccnn1C` (stereo not drawn) [Compound 17]: the pIC50 was 6.80.

In the case of `CC(C)Nc1ccc2c(c1)/C(=C1\COC3(CCN(C(C)C)CC3)CN1)C(=O)N2C(C)C` [Compound 138], the pIC50 is 8.22.

Regarding `CN1C(=O)/C(=C2/COCCN2)c2cc(NC3CCC3)ccc21` [Compound 154], the pIC50 is 7.74.

Turning to `CC1CCCC1Nc1ccc2c(c1)/C(=C1\COCCN1)C(=O)N2C1CCOCC1` (stereo not drawn) [Compound 102], the pIC50 was 8.52.

Consider `CC(C)N1C(=O)/C(=C2/COCCN2)c2cc(NC3CCC(F)(F)CC3)ccc21` [Compound 72], for which the pIC50 is 8.22.

For the molecule `CN(C)c1ccc2c(c1)/C(=C1\CCCN1)C(=O)N2C` [Compound 1], the negative-log IC50 (pIC50) is 6.55.

Take `O=C1/C(=C2/COCCN2)c2cc(NC3CCC3)ccc2N1C1CCOCC1` [Compound 132]: the pIC50 is 7.68.

Turning to `CC(C)CNc1ccc2c(c1)/C(=C1\COCCN1)C(=O)N2C(C)C` [Compound 173], the pIC50 was 7.49.

Take `CC(C)Nc1ccc2c(c1)/C(=C1\CN(C(C)C)CCN1)C(=O)N2C1CCN(C(C)C)CC1` [Compound 8]: the pIC50 was 7.39.

In the case of `CCC(CC)Nc1ccc2c(c1)/C(=C1\COCCN1)C(=O)N2C1CCOCC1` [Compound 76], the pIC50 is 7.62.

For `CCC(C)Nc1ccc2c(c1)/C(=C1\COCCN1)C(=O)N2C(C)C` (stereo not drawn) [Compound 54], the pIC50 is 7.62.

With `CC(C)Nc1ccc2c(c1)/C(=C1\CCCCN1)C(=O)N2C(C)C` [Compound 133], the pIC50 was 7.64.

For `CC1OCCC1Nc1ccc2c(c1)/C(=C1\COCCN1)C(=O)N2C1CCOCC1` (stereo not drawn) [Compound 174], the pIC50 was 6.84.

Regarding `CC(C)N1C(=O)/C(=C2/COCCN2)c2cc(NCC3CCOCC3)ccc21` [Compound 75], the pIC50 was 7.14.

`CC(Nc1ccc2c(c1)/C(=C1\COCCN1)C(=O)N2C1CCOCC1)C1CCCC1` (stereo not drawn) [Compound 61]: the pIC50 was 7.92.

For the molecule `CC(C)Nc1ccc2c(c1)/C(=C1\CN(C(C)C)CCN1)C(=O)N2C1CCOCC1` [Compound 46], the pIC50 is 7.32.

Consider `CN(C)c1ccc2c(c1)/C(=C1\CCCCCN1)C(=O)N2C` [Compound 105], for which the pIC50 was 7.04.

`CC(C)Nc1ccc2c(c1)/C(=C1\COCCN1)C(=O)N2C1COCCOC1` [Compound 26]: the pIC50 was 7.23.

In the case of `CCOC(=O)N1CCC(N2C(=O)/C(=C3/COCCN3)c3cc(NC(C)C)ccc32)CC1` [Compound 10], the pIC50 is 7.51.

For the molecule `CNc1ccc2c(c1)/C(=C1\CCCN1)C(=O)N2C1CCOCC1` [Compound 43], the pIC50 is 6.91.

For `CC(C)N1C(=O)/C(=C2/COCCN2)c2cc(NC3CCOCC3F)ccc21` (stereo not drawn) [Compound 73], the pIC50 is 6.58.

In the case of `CC(Nc1ccc2c(c1)/C(=C1\COCCN1)C(=O)N2C1CCOCC1)c1ccccn1` (stereo not drawn) [Compound 77], the pIC50 is 7.32.

`COCC(C)Nc1ccc2c(c1)/C(=C1\COCCN1)C(=O)N2C1COC1` (stereo not drawn) [Compound 137]: the pIC50 was 6.05.

For `CC(C)N1C(=O)/C(=C2/COCCN2)c2cc(NC3CCCC3)ccc21` [Compound 94], the pIC50 was 7.57.

On to `CC(C)Nc1ccc2c(c1)/C(=C1\CN(C(C)C)CCN1)C(=O)N2C(C)C` [Compound 88], for which the pIC50 was 8.00.

Take `CC(C)N1C(=O)C(=C2CCOCC2)c2cc(NC3CCC3)ccc21` [Compound 25]: the pIC50 was 7.02.

Regarding `CC(C)N1C(=O)C(=C2CCOCC2)c2cc(N)ccc21` [Compound 157], the pIC50 was 5.78.

For the molecule `CC(C)N1C(=O)/C(=C2/CCCN2C)c2cc(NC3CCC3)ccc21` [Compound 161], the pIC50 is 7.70.

Consider `CC(C)C(C)Nc1ccc2c(c1)/C(=C1\COCCN1)C(=O)N2C(C)C` (stereo not drawn) [Compound 95], for which the pIC50 was 8.22.

As to `CC(Nc1ccc2c(c1)/C(=C1\COCCN1)C(=O)N2C1CCOCC1)c1cncnc1` (stereo not drawn) [Compound 147], the pIC50 was 6.37.

`CC(C)Nc1ccc2c(c1)/C(=C1\COCCN1)C(=O)N2C1CCOCC1` [Compound 3]: the pIC50 is 7.15.

With `CN1CCN/C(=C2\C(=O)N(C)c3ccc(N4CCCC4)cc32)CC1` [Compound 64], the pIC50 is 7.19.

For `COCC(C)Nc1ccc2c(c1)/C(=C1\COCCN1)C(=O)N2C1CCOC1` (stereo not drawn) [Compound 52], the pIC50 was 6.70.

On to `CC(Nc1ccc2c(c1)/C(=C1\COCCN1)C(=O)N2C(C)C)C1CCC1` (stereo not drawn) [Compound 37], for which the pIC50 was 8.52.

Turning to `CCOC(=O)N1CCC(N2C(=O)/C(=C3/COCCN3)c3cc(N4CCCC4)ccc32)CC1` [Compound 118], the pIC50 was 7.48.

For the molecule `CN1C(=O)/C(=C2/CCN(C3CCOC3)CCN2)c2cc(N3CCCC3)ccc21` (stereo not drawn) [Compound 155], the pIC50 was 6.67.

As for `CC(=O)N1CCN/C(=C2\C(=O)N(C3CCOCC3)c3ccc(NC(C)C)cc32)C1` [Compound 111], the pIC50 was 6.60.

As to `CC1CCC(C)N1c1ccc2c(c1)/C(=C1\COCCCN1)C(=O)N2C1CCOCC1` (stereo not drawn) [Compound 142], the pIC50 is 7.03.

As to `CC(C)N1C(=O)/C(=C2/COCCN2)c2cc(NCC(C)(C)C)ccc21` [Compound 145], the pIC50 was 8.40.
